# Source: patent US20060019890A1, “Method for treating cardiac remodeling following myocardial injury” (priority 2004, published 2006)
# What was measured:
# ERK = test: Western analysis of ERK phosphorylation; format: cell-based, human; details: 15 min; for effect on BNP induced ERK phosphorylation: KT5823 1 μmol/L or U0126 10 μmol/L
# Protocol: (§1) Lysis was induced with 0.2 ml of buffer containing 20 mM Tris-HCL, pH 7.9, 137 mM NaCl, 1% Triton X-100, 5 mM EDTA, 10 mM NaF, 1 mM β-glycerophosphate, and protease inhibitor cocktail. The protein concentration of each lysate was measured using coomassie protein reagent from PIERCE. Twenty μg of protein from each sample was loaded and electrophoresed on 4-12% gradient polyacrylamide gels and electrophoretically transferred to nitrocellulose membranes (Invitrogen, San Diego, Calif.). The membranes were incubated with rabbit anti-human Collagen 1 antibody (Cortex Biochem, San Leandro, Calif.), HRP-conjugated anti-human Fibronectin antibody, or goat anti-Actin antibody (Santa Cruz Biotehnology, Santa Cruz, Calif.) in TBST buffer containing 20 mM Tris-HCl, pH 7.5, 150 mM NaCl, 0.1% Tween-20, and 5% nonfat dried milk at 4° C. for ˜16 h. For ERK phosphorylation, cells were treated with 0.5 μmol/L BNP in the presence of 1 μmol/L KT5823 or 10 μmol/L U0126 for 15 min; the membranes were incubated with rabbit anti-human phospho-ERK ½ antibody or rabbit anti-human ERK ½ antibody (Cell Signaling, Beverly, Mass.). For secondary antibody detection, membranes were incubated with HRP-conjugated anti-rabbit antibody or anti-goat antibody at room temperature for 1 h and washed 3 times with TBST buffer. The blots were soaked in ECL Plus reagent for 5 min and exposed to KODAK x-ray film. Signals were identified and quantified using a Typhoon Scanner and Densitometer from Amersham Biosciences (Piscataway, N.J.). Data was analyzed by ANOVA using the Newman-Keuls test to assess significance. Results cGMP Production in Cardiac Fibroblasts
# [1] = test system: human cardiac fibroblasts; test: Western blot analysis of Collagen 1 and Fibronectin protein; format: cell-based; details: 48 h; for effect on BNP inhibition of TGFβ-induced Collagen-1 expression, Western blot: U0126 0.1-10 μmol/L, PD98059 10 μmol/L
# Protocol: as §1
# [2] = test system: human cardiac fibroblasts; test: Real-time RT-PCR gene expression in cardiac fibroblasts; format: cell-based; details: for effect on BNP inhibition of TGFβ-induced Collagen-1 expression, real-time RT-PCR: U0126 0.1-10 μmol/L, PD98059 10 μmol/L; for ACTA2 expression level relative to control / CTGF expression level relative to control / Collagen 1 expression level relative to control / Fibronectin expression level relative to control / IL6 expression level relative to control / IL11 expression level relative to control / PTGS2/COX-2 expression level relative to control / SERPINE1/PAI-1 expression level relative to control / TIMP3 expression level relative to control: normalized to 18s RNA
# Protocol: Real-time RT-PCR^18 was performed in a two-step manner. cDNA synthesis and real-time detection were carried out in a PTC-100™ Thermal Cycler (MJ Research Inc, Waltham, Mass.) and an ABI Prism™ 7700 Sequence Detection System (Applied Biosystems, Foster City, Calif.), respectively. Random hexamers (Qiagen, Valencia, Calif.) were used to generate cDNA from 200 ng RNA as described in Applied Biosystems User Bulletin #2. TaqMan™ PCR Core Reagent Kit or TaqMan™ Universal PCR Master Mix (Applied Biosystems) were used in subsequent PCR reactions according to the manufacturer's protocols. Relative quantitation of gene expression was performed using the relative standard curve method. All real-time RT-PCR reactions were performed in triplicate.
# Sequence specific primers and probes were designed using Primer Express Version 2 software (Applied Biosystems). Sequences of primers and probes can be found in Table 1 below. Expression levels were normalized to 18S rRNA. The selection of 18S rRNA as an endogenous control was based on an evaluation of the ΔCT levels (Applied Biosystems document # 4308134C) of 6 “housekeeping” genes: Cyclophilin A, 18S, GAPDH, β-actin, β-Glucuronidase, and Hypoxanthine Guanine Phosphoribosyl Transferase.
# [3] = test system: human cardiac fibroblasts; test: cDNA microarray gene expression profiling of TGFβ- and/or BNP-treated cardiac fibroblasts
# Protocol: Two lots of primary human cardiac fibroblasts, derived from a person (lot 1) and a person (lot 2), were provided by Cambrex Bio Science (Walkersville, Md.). Cells stained positive for α-smooth muscle actin and vimenfin antibodies corroborating their identity as cardiac fibroblasts and myofibroblasts. Both lots were used for the real-time RT-PCR studies; lot 1 was used for the microarray analysis. Cells at passage 3-5 were cultured in FGM containing 15% FBS. At confluence, cells were split and cultured in 6-well plates for 24 h.
# Gene expression profiles were determined from cDNA microarrays containing 8,600 elements derived from clones isolated from normalized cDNA libraries or purchased from ResGen (Invitrogen Life Technologies, Carlsbad, Calif.). DNA for spotting was generated by PCR amplification using 5′amino-modified primers (BD Biosciences Clontech, Palo Alto, Calif.) derived from flanking vector sequences. Amplified DNA was purified in a 96-well format using Qiagen's Qiaquick columns (Valencia, Calif.) according to the manufacturer's recommendations. Samples were eluted in Milli-Q purified water, dried to completion and resuspended in 7 μl of 3×SSC. A fluorescent assay using PicoGreen (Molecular Probes, Eugene, Oreg.) was randomly performed on 12% of the PCR products to determine the average yield after purification; yields were ˜1.5 μg of DNA which corresponds to a concentration of 214 μg/ml. Purified DNA was arrayed from 384-well microtiter plates onto lysine-coated glass slides using an OmniGrid II microarrayer (GeneMachines, San Carlos, Calif.). After printing, DNA was cross-linked to the glass with 65 mjoules UV irradiation and reactive amines were blocked by treatment with succinic anhydride.
# Total RNA was extracted from cells using Qiagen's RNeasy kit; two wells from a 6 well plate were pooled to yield a total of 4×10^5 cells per treatment. RNA was amplified using a modified Eberwine protocol^5 that incorporated a polyA tail into the amplified RNA. Fluorescently-labeled cDNA probes were generated by reverse transcription of 4 μg of RNA with SuperScript II (Invitrogen Life Technologies, Carlsbad, Calif.) using anchored dT primers in the presence of Cy3 or Cy5 dUTP (Amersham, Piscataway, N.J.). Labeled cDNA probe pairs were precipitated with ethanol and purified using Qiaquick columns. Twenty μg each of poly(A) DNA, yeast tRNA, and human Cot1 DNA (Applied Genetics, Melbourne, Fla.) was added to the eluant. The samples were dried to completion and resuspended in 12.5 μl 3×SSC, 0.1% SDS. Probes were heated to 95° C. for 5 minutes, applied to the arrays under a 22 mm^2 cover slip and allowed to hybridize for at least 16 h at 65° C. The arrays were washed at 55° C. for 10 minutes in 2×SSC, 0.1% SDS, followed by two washes at room temperature in 1×SSC (10 min) and 0.2×SSC (15 min). Hybridization of each fluorophore was quantified using an Axon GenePix 4000A scanner.
# Differential expression values were expressed as the ratio of the median of background-subtracted fluorescent intensity of the experimental RNA to the median of background-subtracted fluorescent intensity of the control RNA. For ratios greater than or equal to 1.0, the ratio was expressed as a positive value. For ratios less than 1.0, the ratio was expressed as the negative reciprocal (i.e., a ratio of 0.5=−2.0). Median ratios were normalized to 1.0 using two pools of 3000 randomly chosen cDNAs in each pool. Six replicates of each of the two pools were printed in 4 evenly distributed blocks of the array. Expression data was rejected if neither channel produced a signal of at least 2.0-fold over background. Differential expression ratios were determined as the mean of the two values from dye-swapped duplicates.
# acute myocardial injury [4] = test: Cardiac function (Millar pressure volume conductance system) in L-NAME/AngII acute myocardial injury model; format: in vivo, rat; details: L-NAME/AngII rats
# Protocol: (§2) In a related study, an in vivo model for acute myocardial injury was used to explore the effects of BNP. Male Sprague Dawley rats ranging in weight from 225 to 250 gm were utilized. Acute myocardial injury was induced by administration of Nω-nitro-L-arginine methyl ester (L-NAME, 40 mg/kg/day)salt (1% NaCl) plus angiotensin II (AngII, 0.5 mg/kg/day) in the rats. The L-NAME was administered in drinking water from day 1 to day 14. Angiotensin II was continuously infused subcutaneously with an osmotic pump from day 11 to day 14. Rat BNP ([…]) was intravenously infused through an external infusion pump from day 10 to day 14.
# (§3) Systolic blood pressure, plasma level of aldosterone, cardiac function heart/body weight ration and gene expression in the heart were analyzed. Systolic blood pressure was monitored via tail cuff technique with an IITC blood pressure recording system. Cardiac function was monitored via a Millar ARIA Pressure Volume Conductance System with an 1.4 F catheter. Gene expression as referenced above with results provided in FIG. 12 were monitored by RT-PCR with an ABI Prism™ 7700 sequence detection system.
# [5] = Plasma level of aldosterone in L-NAME/AngII acute myocardial injury model; format: in vivo; details: L-NAME/AngII rats, rat BNP i.v. infusion day 10 to day 14
# Protocol: as §2, §3
# acute myocardial injury [6] = test: Heart/body weight ratio in L-NAME/AngII acute myocardial injury model; format: in vivo; details: L-NAME/AngII rats, rat BNP i.v. infusion day 10 to day 14
# Protocol: as §2, §3
# [7] = Degradation of added BNP in cardiac fibroblast culture (immunoreactive assays and cGMP stimulation cell bioassays); format: in vitro ADME; details: human, primary human cardiac fibroblasts in culture, within 24 h, read-out: added BNP metabolized
# Protocol: Two lots of primary human cardiac fibroblasts, derived from a person (lot 1) and a person (lot 2), were provided by Cambrex Bio Science (Walkersville, Md.). […] Cells at passage 3-5 were cultured in FGM containing 15% FBS. At confluence, cells were split and cultured in 6-well plates for 24 h.
# acute myocardial injury [8] = test: Systolic blood pressure (tail cuff) in L-NAME/AngII acute myocardial injury model; format: in vivo; details: rat BNP i.v. infusion day 10 to day 14
# Protocol: as §2, §3
# acute myocardial injury [9] = test: Gene expression in the heart by RT-PCR in L-NAME/AngII acute myocardial injury model; format: in vivo, rat; details: stimulated by L-NAME plus angiotensin II
# Protocol: In a related study, a gene microassay profile of rat heart tissue was conducted. Fibrotic and extracellular matrix associated genes were stimulated in vivo by L-NAME plus angiotensin II.
# as §2, §3
# [10] = TGFβ-stimulated cells, microarray
# [11] = rat BNP i.v. infusion day 10 to day 14
smiles,measurement,setting,value
COC(=O)[C@@]1(OC)C[C@H]2O[C@]1(C)n1c3ccccc3c3c4c(c5c6ccccc6n2c5c31)C(=O)N(C)C4 [KT5823],effect on BNP induced ERK phosphorylation,ERK,completely blocked
N#CC(=C(/N)Sc1ccccc1N)/C(C#N)=C(\N)Sc1ccccc1N [U0126],"effect on BNP inhibition of TGFβ-induced Collagen-1 expression, Western blot",[1],reversed
same,effect on BNP induced ERK phosphorylation,ERK,completely blocked
same,"effect on BNP inhibition of TGFβ-induced Collagen-1 expression, real-time RT-PCR",[2]; 48 h,reversed
COc1cccc(-c2cc(=O)c3ccccc3o2)c1N [PD98059],"effect on BNP inhibition of TGFβ-induced Collagen-1 expression, Western blot",[1],reversed
same,"effect on BNP inhibition of TGFβ-induced Collagen-1 expression, real-time RT-PCR",[2]; 48 h,reversed
"CC[C@H](C)[C@@H]1NC(=O)[C@H](CCCNC(=N)N)NC(=O)[C@H](CC(=O)O)NC(=O)[C@H](CCSC)NC(=O)[C@H](CCCCN)NC(=O)[C@H](CCCNC(=N)N)NC(=O)CNC(=O)[C@H](Cc2ccccc2)NC(=O)[C@@H](NC(=O)CNC(=O)[C@H](CO)NC(=O)CNC(=O)[C@H](CCC(N)=O)NC(=O)[C@@H](NC(=O)[C@H](CCSC)NC(=O)[C@H](CCCCN)NC(=O)[C@@H]2CCCN2C(=O)[C@@H](N)CO)C(C)C)CSSC[C@@H](C(=O)N[C@@H](CCCCN)C(=O)N[C@H](C(=O)N[C@@H](CC(C)C)C(=O)N[C@@H](CCCNC(=N)N)C(=O)N[C@@H](CCCNC(=N)N)C(=O)N[C@@H](Cc2c[nH]cn2)C(=O)O)C(C)C)NC(=O)CNC(=O)[C@H](CC(C)C)NC(=O)CNC(=O)[C@H](CO)NC(=O)[C@H](CO)NC(=O)[C@H](CO)NC(=O)[C@H](CO)NC1=O [BNP, brain natriuretic peptide]",effect on TGFβ-induced Fibronectin protein expression,[1],inhibited
same,inhibition of TGFβ-stimulated Collagen 1 protein synthesis,[1],~75%
same,TGFβ-regulated gene expression events opposed,[3]; 24 h,~88%
same,TGFβ-regulated gene expression events opposed,[3]; 48 h,~85%
same,"effect on TGFβ-induction of PTGS2 (COX2), TNFAIP6 and TNFSF4",[3]; [10],reversed
same,"effect on TGFβ-regulated cell proliferation genes (PDGFA, IGFBP10, IGF1, PTHLH, CDC25B, CUL5)",[3]; [10],opposed
same,effect on fibrosis and ECM gene cluster up-regulated by TGFβ,[3]; [10],down-regulated
same,effect on gene expression in unstimulated human cardiac fibroblasts,"[3]; microarray, 24 and 48 h",no significant effects
same,effect on cardiac output,acute myocardial injury [4],increases
same,effect on heart rate,acute myocardial injury [4],no effect
same,effect on maximum dP/dt,acute myocardial injury [4],increased
same,effect on minimum dP/dt,acute myocardial injury [4],increased
same,arterial elastance,acute myocardial injury [4]; [11],42.6±5.1 mmHg/ul
same,diastolic volume,acute myocardial injury [4]; [11],22.4 ± 1.1 µL
same,ejection fraction,acute myocardial injury [4]; [11],20.4±2.4%
same,stroke volume,acute myocardial injury [4]; [11],4.74 ± 0.73 µL
same,stroke work,acute myocardial injury [4]; [11],531.5±99.1 mmH*ul
same,ERK phosphorylation,ERK; BNP 0.5 μmol/L,activates ERK
same,plasma aldosterone,[5],6.6 ± 0.16 ng/mL
same,heart/body weigh ratio,acute myocardial injury [6],0.0029±0.001
same,effect on TGFβ induction of Collagen 1 mRNA levels,"[2]; 6, 24 and 48 h",blocked
same,ACTA2 expression level relative to control,"[2]; 6 h, lot 1",0.8 ± 0.12
same,CTGF expression level relative to control,"[2]; 6 h, lot 1",0.9 ± 0.24
same,Collagen 1 expression level relative to control,"[2]; 6 h, lot 1",1.0 ± 0.05
same,Fibronectin expression level relative to control,"[2]; 6 h, lot 1",0.9 ± 0.19
same,IL6 expression level relative to control,"[2]; 6 h, lot 1",0.9 ± 0.02
same,IL11 expression level relative to control,"[2]; 6 h, lot 1",1.1 ± 0.04
same,PTGS2/COX-2 expression level relative to control,"[2]; 6 h, lot 1",1.2 ± 0.22
same,SERPINE1/PAI-1 expression level relative to control,"[2]; 6 h, lot 1",0.7 ± 0.08
same,TIMP3 expression level relative to control,"[2]; 6 h, lot 1",0.9 ± 0.11
same,ACTA2 expression level relative to control,"[2]; 24 h, lot 1",0.9 ± 0.11
same,CTGF expression level relative to control,"[2]; 24 h, lot 1",1.0 ± 0.29
same,Collagen 1 expression level relative to control,"[2]; 24 h, lot 1",1.1 ± 0.13
same,Fibronectin expression level relative to control,"[2]; 24 h, lot 1",1.0 ± 0.10
same,IL6 expression level relative to control,"[2]; 24 h, lot 1",0.9 ± 0.21
same,PTGS2/COX-2 expression level relative to control,"[2]; 24 h, lot 1",1.2 ± 0.38
same,SERPINE1/PAI-1 expression level relative to control,"[2]; 24 h, lot 1",0.7 ± 0.01
same,TIMP3 expression level relative to control,"[2]; 24 h, lot 1",1.0 ± 0.12
same,ACTA2 expression level relative to control,"[2]; 24 h, lot 2",0.9 ± 0.25
same,Fibronectin expression level relative to control,"[2]; 24 h, lot 2",0.9 ± 0.24
same,IL6 expression level relative to control,"[2]; 24 h, lot 2",0.9 ± 0.07
same,IL11 expression level relative to control,"[2]; 24 h, lot 2",1.0 ± 0.05
same,SERPINE1/PAI-1 expression level relative to control,"[2]; 24 h, lot 2",0.7 ± 0.11
same,TIMP3 expression level relative to control,"[2]; 24 h, lot 2",0.7 ± 0.09
same,effect on TGFβ-induced Fibronectin mRNA expression,[2]; 48 h,inhibited
same,ACTA2 expression level relative to control,"[2]; 48 h, lot 1",1.0 ± 0.03
same,Collagen 1 expression level relative to control,"[2]; 48 h, lot 1",1.2 ± 0.03
same,Fibronectin expression level relative to control,"[2]; 48 h, lot 1",1.1 ± 0.04
same,IL6 expression level relative to control,"[2]; 48 h, lot 1",0.9 ± 0.03
same,IL11 expression level relative to control,"[2]; 48 h, lot 1",0.7 ± 0.10
same,PTGS2/COX-2 expression level relative to control,"[2]; 48 h, lot 1",1.0 ± 0.12
same,SERPINE1/PAI-1 expression level relative to control,"[2]; 48 h, lot 1",0.9 ± 0.00
same,TIMP3 expression level relative to control,"[2]; 48 h, lot 1",0.9 ± 0.00
same,ACTA2 expression level relative to control,"[2]; 48 h, lot 2",0.7 ± 0.11
same,Collagen 1 expression level relative to control,"[2]; 48 h, lot 2",1.0 ± 0.01
same,Fibronectin expression level relative to control,"[2]; 48 h, lot 2",1.0 ± 0.11
same,IL6 expression level relative to control,"[2]; 48 h, lot 2",0.9 ± 0.06
same,IL11 expression level relative to control,"[2]; 48 h, lot 2",0.8 ± 0.09
same,PTGS2/COX-2 expression level relative to control,"[2]; 48 h, lot 2",1.0 ± 0.06
same,SERPINE1/PAI-1 expression level relative to control,"[2]; 48 h, lot 2",0.8 ± 0.03
same,TIMP3 expression level relative to control,"[2]; 48 h, lot 2",0.6 ± 0.00
same,metabolised at 24 h,[7],50%
same,effect on systolic blood pressure raised by L-NAME+AngII,acute myocardial injury [8],no effect
same,mRNA expression for collagen I in rat heart,acute myocardial injury [9],markedly reduced
same,mRNA expression for collagen III in rat heart,acute myocardial injury [9],markedly reduced
same,mRNA expression for fibronectin in rat heart,acute myocardial injury [9],markedly reduced
